According to the supplement of paper PMC10307832:

What was measured:
Experiment in all cases: relative viability (nuclei count vs DMSO), 5 days (fraction); higher = more cells survive
NCI-H1355 = tested on: NCI-H1355
Method in brief: (§1)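 Lung cancer cell lines were pin-tool dosed in 1536-well plates on the day after seeding, with either a lone drug or a fixed anchor-drug dose plus five library-drug doses (not always all listed) in √10 steps. Nuclei were counted on 4× images after 5 days. Relative viability is the ratio of treated-well to vehicle-well nuclei counts, with each value a median of duplicate plates.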

LK-2 = tested on: LK-2
Method in brief: as §1

NCI-H1944 = tested on: NCI-H1944
Method in brief: as §1

PC-3 [JPC-3] = tested on: PC-3 [JPC-3]
Method in brief: as §1

NCI-H838 = tested on: NCI-H838
Method in brief: as §1

NCI-H650 = tested on: NCI-H650
Method in brief: as §1

NCI-H661 = tested on: NCI-H661
Method in brief: as §1

ChaGo-K-1 = tested on: ChaGo-K-1
Method in brief: as §1

BEN = tested on: BEN
Method in brief: as §1

NCI-H1975 = tested on: NCI-H1975
Method in brief: as §1

LU99A = tested on: LU99A
Method in brief: as §1

LXF-289 = tested on: LXF-289
Method in brief: as §1

NCI-H2342 = tested on: NCI-H2342
Method in brief: as §1

NCI-H2087 = tested on: NCI-H2087
Method in brief: as §1

LC-2-ad = tested on: LC-2-ad
Method in brief: as §1

SK-MES-1 = tested on: SK-MES-1
Method in brief: as §1

NCI-H1651 = tested on: NCI-H1651
Method in brief: as §1

NCI-H596 = tested on: NCI-H596
Method in brief: as §1

NCI-H1666 = tested on: NCI-H1666
Method in brief: as §1

LCLC-97TM1 = tested on: LCLC-97TM1
Method in brief: as §1

HCC-78 = tested on: HCC-78
Method in brief: as §1

NCI-H358 = tested on: NCI-H358
Method in brief: as §1

In the case of `Cc1sc2c(c1C)C(c1ccc(Cl)cc1)=N[C@@H](CC(=O)OC(C)(C)C)c1nnc(C)n1-2` [JQ1] + Cc1cc(Nc2cc(N3CCN(C)CC3)nc(Sc3ccc(NC(=O)C4CC4)cc3)n2)n[nH]1 [Tozasertib] (partner 0.1 µM), the relative viability (NCI-H1355; first compound 0.04 µM) is reported as 0.522, the relative viability (NCI-H1355; first compound 0.1265 µM) is reported as 0.387 and the relative viability (NCI-H1355; first compound 0.4 µM) is reported as 0.324. The relative viability (NCI-H1355; first compound 1.265 µM) was 0.23, the relative viability (NCI-H1355; first compound 4 µM) was 0.202 and the relative viability (LK-2; first compound 0.04 µM) was 0.18. It also gave a relative viability (LK-2; first compound 0.1265 µM) of 0.192, a relative viability (LK-2; first compound 0.4 µM) of 0.195 and a relative viability (LK-2; first compound 1.265 µM) of 0.151. For the same molecule, the relative viability (LK-2; first compound 4 µM) was 0.166, the relative viability (NCI-H1944; first compound 0.04 µM) was 0.231 and the relative viability (NCI-H1944; first compound 0.1265 µM) was 0.225. It also gave a relative viability (NCI-H1944; first compound 0.4 µM) of 0.227, a relative viability (NCI-H1944; first compound 1.265 µM) of 0.208 and a relative viability (NCI-H1944; first compound 4 µM) of 0.185. The relative viability (PC-3 [JPC-3]; first compound 0.04 µM) was 0.924, the relative viability (PC-3 [JPC-3]; first compound 0.1265 µM) was 0.935 and the relative viability (PC-3 [JPC-3]; first compound 0.4 µM) was 0.588. For the same molecule, the relative viability (PC-3 [JPC-3]; first compound 1.265 µM) was 0.502, the relative viability (PC-3 [JPC-3]; first compound 4 µM) was 0.296 and the relative viability (NCI-H838; first compound 0.04 µM) was 0.26. It also gave a relative viability (NCI-H838; first compound 0.1265 µM) of 0.221, a relative viability (NCI-H838; first compound 0.4 µM) of 0.263 and a relative viability (NCI-H838; first compound 1.265 µM) of 0.179. It also gave a relative viability (NCI-H838; first compound 4 µM) of 0.134, a relative viability (NCI-H650; first compound 0.04 µM) of 0.657 and a relative viability (NCI-H650; first compound 0.1265 µM) of 0.541. The relative viability (NCI-H650; first compound 0.4 µM) was 0.368, the relative viability (NCI-H650; first compound 1.265 µM) was 0.21 and the relative viability (NCI-H650; first compound 4 µM) was 0.177. The relative viability (NCI-H661; first compound 0.04 µM) was 0.37, the relative viability (NCI-H661; first compound 0.1265 µM) was 0.486 and the relative viability (NCI-H661; first compound 0.4 µM) was 0.37. It also gave a relative viability (NCI-H661; first compound 1.265 µM) of 0.435, a relative viability (NCI-H661; first compound 4 µM) of 0.401 and a relative viability (ChaGo-K-1; first compound 0.04 µM) of 0.205. For the same molecule, the relative viability (ChaGo-K-1; first compound 0.1265 µM) was 0.224, the relative viability (ChaGo-K-1; first compound 0.4 µM) was 0.168 and the relative viability (ChaGo-K-1; first compound 1.265 µM) was 0.158. For the same molecule, the relative viability (ChaGo-K-1; first compound 4 µM) was 0.164, the relative viability (BEN; first compound 0.04 µM) was 0.57 and the relative viability (BEN; first compound 0.1265 µM) was 0.535. For the same molecule, the relative viability (BEN; first compound 0.4 µM) was 0.5, the relative viability (BEN; first compound 1.265 µM) was 0.365 and the relative viability (BEN; first compound 4 µM) was 0.28. For the same molecule, the relative viability (NCI-H1975; first compound 0.04 µM) was 0.75, the relative viability (NCI-H1975; first compound 0.1265 µM) was 0.515 and the relative viability (NCI-H1975; first compound 0.4 µM) was 0.487. The relative viability (NCI-H1975; first compound 1.265 µM) was 0.214, the relative viability (NCI-H1975; first compound 4 µM) was 0.171 and the relative viability (LU99A; first compound 0.04 µM) was 0.277. For the same molecule, the relative viability (LU99A; first compound 0.1265 µM) was 0.304, the relative viability (LU99A; first compound 0.4 µM) was 0.237 and the relative viability (LU99A; first compound 1.265 µM) was 0.188. For the same molecule, the relative viability (LU99A; first compound 4 µM) was 0.159, the relative viability (LXF-289; first compound 0.04 µM) was 0.171 and the relative viability (LXF-289; first compound 0.1265 µM) was 0.134. The relative viability (LXF-289; first compound 0.4 µM) was 0.0871, the relative viability (LXF-289; first compound 1.265 µM) was 0.0699 and the relative viability (LXF-289; first compound 4 µM) was 0.0528. For the same molecule, the relative viability (NCI-H2342; first compound 0.04 µM) was 0.65, the relative viability (NCI-H2342; first compound 0.1265 µM) was 0.436 and the relative viability (NCI-H2342; first compound 0.4 µM) was 0.46. It also gave a relative viability (NCI-H2342; first compound 1.265 µM) of 0.45, a relative viability (NCI-H2342; first compound 4 µM) of 0.336 and a relative viability (NCI-H2087; first compound 0.04 µM) of 0.253. For the same molecule, the relative viability (NCI-H2087; first compound 0.1265 µM) was 0.212, the relative viability (NCI-H2087; first compound 0.4 µM) was 0.205 and the relative viability (NCI-H2087; first compound 1.265 µM) was 0.128. For the same molecule, the relative viability (NCI-H2087; first compound 4 µM) was 0.144, the relative viability (LC-2-ad; first compound 0.04 µM) was 0.45 and the relative viability (LC-2-ad; first compound 0.1265 µM) was 0.351. It also gave a relative viability (LC-2-ad; first compound 0.4 µM) of 0.351, a relative viability (LC-2-ad; first compound 1.265 µM) of 0.297 and a relative viability (LC-2-ad; first compound 4 µM) of 0.232. It also gave a relative viability (SK-MES-1; first compound 0.04 µM) of 0.929, a relative viability (SK-MES-1; first compound 0.1265 µM) of 0.507 and a relative viability (SK-MES-1; first compound 0.4 µM) of 0.419. It also gave a relative viability (SK-MES-1; first compound 1.265 µM) of 0.208, a relative viability (SK-MES-1; first compound 4 µM) of 0.171 and a relative viability (NCI-H1651; first compound 0.04 µM) of 0.69. It also gave a relative viability (NCI-H1651; first compound 0.1265 µM) of 0.683, a relative viability (NCI-H1651; first compound 0.4 µM) of 0.672 and a relative viability (NCI-H1651; first compound 1.265 µM) of 0.31. It also gave a relative viability (NCI-H1651; first compound 4 µM) of 0.24, a relative viability (NCI-H596; first compound 0.04 µM) of 0.822 and a relative viability (NCI-H596; first compound 0.1265 µM) of 0.643. The relative viability (NCI-H596; first compound 0.4 µM) was 0.72, the relative viability (NCI-H596; first compound 1.265 µM) was 0.237 and the relative viability (NCI-H596; first compound 4 µM) was 0.225. For the same molecule, the relative viability (NCI-H1666; first compound 0.04 µM) was 0.569, the relative viability (NCI-H1666; first compound 0.1265 µM) was 0.534 and the relative viability (NCI-H1666; first compound 0.4 µM) was 0.484. The relative viability (NCI-H1666; first compound 1.265 µM) was 0.36, the relative viability (NCI-H1666; first compound 4 µM) was 0.354 and the relative viability (LCLC-97TM1; first compound 0.04 µM) was 0.197. The relative viability (LCLC-97TM1; first compound 0.1265 µM) was 0.223, the relative viability (LCLC-97TM1; first compound 0.4 µM) was 0.171 and the relative viability (LCLC-97TM1; first compound 1.265 µM) was 0.116. It also gave a relative viability (LCLC-97TM1; first compound 4 µM) of 0.146, a relative viability (HCC-78; first compound 0.04 µM) of 0.474 and a relative viability (HCC-78; first compound 0.1265 µM) of 0.389. The relative viability (HCC-78; first compound 0.4 µM) was 0.4, the relative viability (HCC-78; first compound 1.265 µM) was 0.299 and the relative viability (HCC-78; first compound 4 µM) was 0.302. For the same molecule, the relative viability (NCI-H358; first compound 0.04 µM) was 0.102, the relative viability (NCI-H358; first compound 0.1265 µM) was 0.102 and the relative viability (NCI-H358; first compound 0.4 µM) was 0.124. It also gave a relative viability (NCI-H358; first compound 1.265 µM) of 0.107 and a relative viability (NCI-H358; first compound 4 µM) of 0.0861.
